One block for each molecule: values may come before it.
Tests used:
Assay type in all cases: functional
KM12 = test: Growth inhibition of human KM12 cells measured after 48 hrs by SRB assay
OVCAR-5 = test: Growth inhibition of human OVCAR-5 cells measured after 48 hrs by SRB assay
MCF7 = test: Growth inhibition of human MCF7 cells measured after 48 hrs by SRB assay
UACC-257 = test: Growth inhibition of human UACC-257 cells measured after 48 hrs by SRB assay
SF-539 = test: Growth inhibition of human SF-539 cells measured after 48 hrs by SRB assay
M14 = test: Growth inhibition of human M14 cells measured after 48 hrs by SRB assay
NCI/ADR-RES = test: Growth inhibition of human NCI/ADR-RES cells measured after 48 hrs by SRB assay
NCI-H322M = test: Growth inhibition of human NCI-H322M cells measured after 48 hrs by SRB assay
DU-145 = test: Growth inhibition of human DU-145 cells measured after 48 hrs by SRB assay
NCI-H23 = test: Growth inhibition of human NCI-H23 cells measured after 48 hrs by SRB assay
IGROV-1 = test: Growth inhibition of human IGROV-1 cells measured after 48 hrs by SRB assay
Hs-578T = test: Growth inhibition of human Hs-578T cells measured after 48 hrs by SRB assay
RXF 393 = test: Growth inhibition of human RXF 393 cells measured after 48 hrs by SRB assay
HL-60 = test: Growth inhibition of human HL-60 cells measured after 48 hrs by SRB assay
K562 = test: Growth inhibition of human K562 cells measured after 48 hrs by SRB assay
NCI-H522 = test: Growth inhibition of human NCI-H522 cells measured after 48 hrs by SRB assay
OVCAR-3 = test: Growth inhibition of human OVCAR-3 cells measured after 48 hrs by SRB assay
SF-268 = test: Growth inhibition of human SF-268 cells measured after 48 hrs by SRB assay
NCI-H460 = test: Growth inhibition of human NCI-H460 cells measured after 48 hrs by SRB assay
SK-MEL-2 = test: Growth inhibition of human SK-MEL-2 cells measured after 48 hrs by SRB assay
BT-549 = test: Growth inhibition of human BT-549 cells measured after 48 hrs by SRB assay
SN12C = test: Growth inhibition of human SN12C cells measured after 48 hrs by SRB assay
SF-295 = test: Growth inhibition of human SF-295 cells measured after 48 hrs by SRB assay
U-251 = test: Growth inhibition of human U-251 cells measured after 48 hrs by SRB assay
HT-29 = test: Growth inhibition of human HT-29 cells measured after 48 hrs by SRB assay
MDA-MB-435 = test: Growth inhibition of human MDA-MB-435 cells measured after 48 hrs by SRB assay
SK-MEL-5 = test: Growth inhibition of human SK-MEL-5 cells measured after 48 hrs by SRB assay
SNB-19 = test: Growth inhibition of human SNB-19 cells measured after 48 hrs by SRB assay
HCC 2998 = test: Growth inhibition of human HCC 2998 cells measured after 48 hrs by SRB assay
MOLT-4 = test: Growth inhibition of human MOLT-4 cells measured after 48 hrs by SRB assay
UACC-62 = test: Growth inhibition of human UACC-62 cells measured after 48 hrs by SRB assay
CAKI-1 = test: Growth inhibition of human CAKI-1 cells measured after 48 hrs by SRB assay
786-0 = test: Growth inhibition of human 786-0 cells measured after 48 hrs by SRB assay
SK-OV-3 = test: Growth inhibition of human SK-OV-3 cells measured after 48 hrs by SRB assay
A549 = test: Growth inhibition of human A549 cells measured after 48 hrs by SRB assay
PC-3 = test: Growth inhibition of human PC-3 cells measured after 48 hrs by SRB assay
HCT-116 = test: Growth inhibition of human HCT-116 cells measured after 48 hrs by SRB assay
HOP-62 = test: Growth inhibition of human HOP-62 cells measured after 48 hrs by SRB assay
NCI-H226 = test: Growth inhibition of human NCI-H226 cells measured after 48 hrs by SRB assay
Malme-3M = test: Growth inhibition of human Malme-3M cells measured after 48 hrs by SRB assay
COLO 205 = test: Growth inhibition of human COLO 205 cells measured after 48 hrs by SRB assay
MDA-MB-231 = test: Growth inhibition of human MDA-MB-231 cells measured after 48 hrs by SRB assay
LOX IMVI = test: Growth inhibition of human LOX IMVI cells measured after 48 hrs by SRB assay
CCRF-CEM = test: Growth inhibition of human CCRF-CEM cells measured after 48 hrs by SRB assay
HOP-92 = test: Growth inhibition of human HOP-92 cells measured after 48 hrs by SRB assay
SR = test: Growth inhibition of human SR cells measured after 48 hrs by SRB assay
ACHN = test: Growth inhibition of human ACHN cells measured after 48 hrs by SRB assay
OVCAR-8 = test: Growth inhibition of human OVCAR-8 cells measured after 48 hrs by SRB assay
T47D = test: Growth inhibition of human T47D cells measured after 48 hrs by SRB assay
UO-31 = test: Growth inhibition of human UO-31 cells measured after 48 hrs by SRB assay
SW-620 = test: Growth inhibition of human SW-620 cells measured after 48 hrs by SRB assay
MDA-MB-468 = test: Growth inhibition of human MDA-MB-468 cells measured after 48 hrs by SRB assay
A498 = test: Growth inhibition of human A498 cells measured after 48 hrs by SRB assay
TK-10 = test: Growth inhibition of human TK-10 cells measured after 48 hrs by SRB assay
SNB-75 = test: Growth inhibition of human SNB-75 cells measured after 48 hrs by SRB assay
SK-MEL-28 = test: Growth inhibition of human SK-MEL-28 cells measured after 48 hrs by SRB assay
HCT-15 = test: Growth inhibition of human HCT-15 cells measured after 48 hrs by SRB assay

Structure (SMILES): C[C@]12CC[C@H]3[C@@H](CC[C@H]4C[C@@H](O)CC[C@@]43C=O)[C@@]1(O)CC[C@@H]2c1ccc(=O)oc1
GI50 (KM12): 6.25 µM | GI50 (OVCAR-5): 5.21 µM | GI50 (MCF7): 0.99 µM | GI50 (UACC-257): 4.5 µM | GI50 (SF-539): 1.47 µM | GI50 (M14): 4.14 µM | GI50 (NCI/ADR-RES): 1.49 µM | GI50 (NCI-H322M): 3.12 µM | GI50 (DU-145): 1.18 µM | GI50 (NCI-H23): 1.71 µM | GI50 (IGROV-1): 5.06 µM | GI50 (Hs-578T): 0.739 µM | GI50 (RXF 393): 0.418 µM | GI50 (HL-60): 3.41 µM | GI50 (K562): 4.28 µM | GI50 (NCI-H522): 0.694 µM | GI50 (OVCAR-3): 1.71 µM | GI50 (SF-268): 1.07 µM | GI50 (NCI-H460): 0.556 µM | GI50 (SK-MEL-2): 4.3 µM | GI50 (BT-549): 1.73 µM | GI50 (SN12C): 0.877 µM | GI50 (SF-295): 1.98 µM | GI50 (U-251): 4.47 µM | GI50 (HT-29): 2.7 µM | GI50 (MDA-MB-435): 3.5 µM | GI50 (SK-MEL-5): 2.35 µM | GI50 (SNB-19): 6.41 µM | GI50 (HCC 2998): 8.74 µM | GI50 (MOLT-4): 0.665 µM | GI50 (UACC-62): 3.2 µM | GI50 (CAKI-1): 1.5 µM | GI50 (786-0): 1.76 µM | GI50 (SK-OV-3): 5.63 µM | GI50 (A549): 0.562 µM | GI50 (PC-3): 3.53 µM | GI50 (HCT-116): 0.633 µM | GI50 (HOP-62): 1.1 µM | GI50 (NCI-H226): 6.87 µM | GI50 (Malme-3M): 3.47 µM | GI50 (COLO 205): 6.52 µM | GI50 (MDA-MB-231): 14.1 µM | GI50 (LOX IMVI): 2.37 µM | GI50 (CCRF-CEM): 1.07 µM | GI50 (HOP-92): 3.22 µM | GI50 (SR): 2.03 µM | GI50 (ACHN): 0.502 µM | GI50 (OVCAR-8): 2.83 µM | GI50 (T47D): 4.74 µM | GI50 (UO-31): 1.6 µM | GI50 (SW-620): 1.34 µM | GI50 (MDA-MB-468): 8.23 µM | GI50 (A498): 1.13 µM | GI50 (TK-10): 2.58 µM | GI50 (SNB-75): 3.18 µM | GI50 (SK-MEL-28): 6.05 µM | GI50 (HCT-15): 2.15 µM

GI50 (OVCAR-5): > 10 µM | GI50 (MCF7): 7.71 µM | GI50 (NCI-H322M): > 10 µM | GI50 (DU-145): 6.1 µM | GI50 (NCI-H23): 8.31 µM | GI50 (HL-60): 7.37 µM | GI50 (K562): > 10 µM | GI50 (NCI-H522): 3.96 µM | GI50 (OVCAR-3): 4 µM | GI50 (NCI-H460): 3.53 µM | GI50 (SK-MEL-2): > 10 µM | GI50 (BT-549): 5.01 µM | GI50 (U-251): > 10 µM | GI50 (HT-29): > 10 µM | GI50 (MDA-MB-435): > 10 µM | GI50 (SK-MEL-5): 5.09 µM | GI50 (HCC 2998): > 10 µM | GI50 (MOLT-4): 5.12 µM | GI50 (786-0): 7.33 µM | GI50 (SK-OV-3): > 10 µM | GI50 (A549): 4.78 µM | GI50 (PC-3): > 10 µM | GI50 (HCT-116): 4.44 µM | GI50 (NCI-H226): > 10 µM | GI50 (COLO 205): > 10 µM | GI50 (MDA-MB-231): > 10 µM | GI50 (CCRF-CEM): 6.97 µM | GI50 (ACHN): 2.32 µM | GI50 (OVCAR-8): > 10 µM | GI50 (T47D): > 10 µM | GI50 (SW-620): 7.06 µM | GI50 (MDA-MB-468): > 10 µM | GI50 (SK-MEL-28): > 10 µM | GI50 (HCT-15): > 10 µM
Structure (SMILES): CC(=O)OC[C@H]1O[C@@H](O[C@@H]2C=C3CC[C@@H]4[C@H](C(=O)C[C@]5(C)[C@@H](c6ccc(=O)oc6)CC[C@]45O)[C@@]3(C)CC2)[C@H](OC(C)=O)[C@@H](OC(C)=O)[C@@H]1OC(C)=O
GI50 (KM12): > 10 µM | GI50 (UACC-257): > 10 µM | GI50 (SF-539): 6.01 µM | GI50 (M14): > 10 µM | GI50 (NCI/ADR-RES): > 10 µM | GI50 (IGROV-1): > 10 µM | GI50 (Hs-578T): 3.79 µM | GI50 (RXF 393): 2.31 µM | GI50 (SF-268): 5.64 µM | GI50 (SN12C): 4.85 µM | GI50 (SF-295): 7.35 µM | GI50 (SNB-19): > 10 µM | GI50 (UACC-62): > 10 µM | GI50 (CAKI-1): 7.28 µM | GI50 (HOP-62): 6.88 µM | GI50 (Malme-3M): 9.73 µM | GI50 (LOX IMVI): > 10 µM | GI50 (HOP-92): > 10 µM | GI50 (SR): > 10 µM | GI50 (UO-31): 6.06 µM | GI50 (A498): 2.89 µM | GI50 (TK-10): 6.22 µM | GI50 (SNB-75): > 10 µM
